Measured values reported in patent US7094753B2, “Somatostatin analog and uses thereof” (Societe de Conseils de Recherches et d'Applications …, priority 2001, dated 2006).
Like-named read-outs stand apart in the source and are kept apart here. Bridge positions count the residues as written; N and C are the ends. Square brackets hold non-standard residues; d marks the D form. Peptide text beside a SMILES is read from it.

Legend:
[1] = tested on: mixed GH-/PRL-secreting tumor cells; assay: Inhibition of PRL release in mixed GH-/PRL-secreting tumor cell cultures; type: cell-based, human; conditions: five tumor cell cultures (A1, A2, A7, A9, A10); for mean maximal PRL suppression: at 10 nmol/L
Experimental: (§1) GH and PRL were measured using commercial immunoradiometric kits (Immunotech, Marseilles, France). Normal GH values ranged from 0.2–2.4 μg/L; normal PRL values ranged from 1–24 μg/L in women and from 1–17 μg/L in men. After an ethanol-acid extraction, the plasma IGF-I assay was performed using the IGF-I RIA kit from Nichols Institute Diagnostics (San Juan Capistrano, Calif.).
(§2) A portion of each tumor obtained at surgery was dissociated by mechanical and enzymatic methods. […] Tumor cells were initially cultured in DMEM supplemented with 10% FCS for 3 days. On day 3, the cells were washed and plated in multiwell culture dishes (Costar 3524, Brumath, France) coated with extracellular matrix from bovine endothelial corneal cells as previously described (Jaquet P, et al., 1985, Horm Res. 22:153–163.) at a density of 2×10^4 cells/well. When they were attached to the matrix on days 5–8, depending on the culture, the medium was removed and replaced with DMEM supplemented with 2% FCS, antibiotics, transferrin, and selenium as previously described (Jaquet P, et al., 1985, Horm Res. 22:153–163.). […] Each drug concentration was tested in quadruplicate.
(§3) SRIF-14 was purchased from Sigma (Saint-Quentin Fallavier, France). […] The native SRIF and SRIF analogs were dissolved in 0.01 mol/L acetic acid containing 0.1% purified serum albumin (Life Technologies, Inc., Cergy-Pontoise, France). The drugs were stored at −80 C. as 10^−3 mol/L solutions. For each experiment, fresh working solutions were prepared from a new aliquot.
(§4) The results are presented as the mean±SEM. Statistical significance between two unpaired groups was determined by the Mann-Whitney test. To measure the strength of association between the pairs of variables without specifying dependencies, Spearman order correlation's were used. P<0.05 was considered significant for all tests.

[2] = tested on: GH-secreting adenoma cells; conditions: for suppression of GH: 10 nM; for mean maximal GH suppression: at nanomolar concentrations; for EC50: read-out: EC50 of inhibition of GH release
Experimental: as §1, §2, §3, §4

[3] = tested on: GH; assay: Acute octreotide test in acromegalic patients (GH decrease); type: in vivo, human; conditions: for mean GH suppression: single 200 μg injection, GH 2–6 h after injection vs basal; for Percent inhibition vs. GH basal value: 2–6 h after 200 μg sc; for GH under octreotide: mean GH 2–6 h after 200 μg sc
Experimental: Ten acromegalic patients (seven women and three men), aged 26–62 years, presenting with macroadenoma were studied. Their endocrine status and the neuroradiological characterization of the pituitary adenomas were documented before treatment. Basal GH levels were the mean of three random samples obtained between 0800–0900 h. The basal IGF-I value was evaluated under fasting conditions between 0800–0900 h. […] All patients underwent transsphenoidal surgery.
as §1

[4] = octreotide partially responsive tumors (A6–A10)
[5] = octreotide-sensitive tumors (A1–A5)

`CC[C@@H]1NC(=O)[C@H](CCCCN)NC(=O)[C@@H](Cc2c[nH]c3ccccc23)NC(=O)[C@H](Cc2ccc(O)cc2)NC(=O)[C@@H](NC(=O)[C@@H](Cc2ccccc2)NS(=O)(=O)CCN2CCN(CCO)CC2)CSSC[C@@H](C(=O)N[C@H](C(N)=O)[C@@H](C)O)NC1=O` [Compound A] was tested, and the “mean maximal PRL inhibition” value [1] was 34±5%, the “maximal GH suppression” value [2, 4] was 31±5% and the “maximal mean GH suppression” value ([2]; octreotide-sensitive tumors (A1–A5), at 0.1 nmol/L) was 41±7%.
In the case of `C[C@@H](O)[C@@H]1NC(=O)[C@H](CCCCN)NC(=O)[C@@H](Cc2c[nH]c3ccccc23)NC(=O)[C@H](Cc2ccccc2)NC(=O)[C@H](Cc2ccccc2)NC(=O)[C@@H](N)CSSC[C@@H](C(N)=O)NC(=O)[C@H](Cc2ccccc2)NC1=O` [Compound B] (H-CFF[dW]KTFC-NH2; disulfide 1-8), the “mean maximal PRL inhibition” value [1] is reported as 52±6%, the “maximal GH suppression” value [2, 4] is reported as 38±7% and the “concentration producing maximal inhibition of GH release” value [2, 5] is reported as 10 nmol/L.
`CC(C)[C@@H]1NC(=O)[C@H](CCCCN)NC(=O)[C@@H](Cc2c[nH]c3ccccc23)NC(=O)[C@H](Cc2ccc(O)c(I)c2)NC(=O)[C@@H](NC(=O)[C@H](N)Cc2ccccc2)CSSC[C@@H](C(=O)N[C@H](C(N)=O)[C@@H](C)O)NC1=O` [Formula (I), D-Phe-c(Cys-Tyr(I)-D-Trp-Lys-Val-Cys)-Thr-NH2] was tested, and the “mean maximal PRL suppression” value [1] was 51±5%, the “maximal GH suppression” value [2, 4] was 44±5% and the “suppression of GH” value [2, 4] was 44±5%. For the same compound, the “mean maximal GH suppression” value [2, 5] was 44±5%.
In the case of `C[C@H](N)C(=O)NCC(=O)N[C@H]1CSSC[C@@H](C(=O)O)NC(=O)[C@H](CO)NC(=O)[C@H]([C@@H](C)O)NC(=O)[C@H](Cc2ccccc2)NC(=O)[C@H]([C@@H](C)O)NC(=O)[C@H](CCCCN)NC(=O)[C@H](Cc2c[nH]c3ccccc23)NC(=O)[C@H](Cc2ccccc2)NC(=O)[C@H](Cc2ccccc2)NC(=O)[C@H](CC(N)=O)NC(=O)[C@H](CCCCN)NC1=O` [Somatostatin-14], the “dose-related inhibition of PRL release compared with Compound B” value [1] is reported as “similarly achieved” and the “maximal GH suppression compared with Compound B” value [2, 4] is reported as “equally achieved”.
With Octreotide the “mean maximal PRL suppression” value [1] was 34±7%, the “suppression of GH” value [2, 4] was 26±7% and the “mean maximal GH suppression” value [2, 5] was 36±7%. The EC50 ([2]; cultures from the 5 octreotide partially responsive tumors (A6–A10)) was 200 ± 145 pM, the EC50 ([2]; cultures from the 5 octreotide-sensitive tumors (A1–A5), 8-h period) was 55 ± 15 pM and the “mean GH suppression” value ([3]; five full octreotide responders) was 79±7%. For the same compound, the “mean GH suppression” value ([3]; five partial octreotide responders) was 33±6%, the “Percent inhibition vs. GH basal value” ([3]; patient A1) was 91% and the GH under octreotide ([3]; patient A1, basal 11) was 1 µg/L. The “Percent inhibition vs. GH basal value” ([3]; patient A2) was 82%, the GH under octreotide ([3]; patient A2, basal 22) was 4 µg/L and the “Percent inhibition vs. GH basal value” ([3]; patient A3) was 76%. For the same compound, the GH under octreotide ([3]; patient A3, basal 109) was 26 µg/L, the “Percent inhibition vs. GH basal value” ([3]; patient A4) was 75% and the GH under octreotide ([3]; patient A4, basal 141) was 36 µg/L. For the same compound, the “Percent inhibition vs. GH basal value” ([3]; patient A5) was 75%, the GH under octreotide ([3]; patient A5, basal 47) was 12 µg/L and the “Percent inhibition vs. GH basal value” ([3]; patient A6) was 40%. For the same compound, the GH under octreotide ([3]; patient A6, basal 5) was 3 µg/L, the “Percent inhibition vs. GH basal value” ([3]; patient A7) was 39% and the GH under octreotide ([3]; patient A7, basal 26) was 15.8 µg/L. For the same compound, the “Percent inhibition vs. GH basal value” ([3]; patient A8) was 37%, the GH under octreotide ([3]; patient A8, basal 13) was 8.2 µg/L and the “Percent inhibition vs. GH basal value” ([3]; patient A9) was 29%. The GH under octreotide ([3]; patient A9, basal 141) was 100 µg/L, the “Percent inhibition vs. GH basal value” ([3]; patient A10) was 23% and the GH under octreotide ([3]; patient A10, basal 195) was 151 µg/L.
